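Assay format: 96-well plates, 48-hour exposure. GI50 marks 50% less growth.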 Activity calls are given as the source filed them. No stated cut-off is given here; in the data, active = GI50 up to about 1.1 µM and inactive = higher.
Legend:
Test in all cases: NCI-60 cell line screen, 48 h
786-0 = test system: 786-0
BT-549 = test system: BT-549
CAKI-1 = test system: CAKI-1
CCRF-CEM = test system: CCRF-CEM
COLO 205 = test system: COLO 205
DU-145 = test system: DU-145
EKVX = test system: EKVX
HL-60 = test system: HL-60
HOP-92 = test system: HOP-92
KM12 = test system: KM12
MCF7 = test system: MCF7
MDA-N = test system: MDA-N
NCI-H522 = test system: NCI-H522
OVCAR-5 = test system: OVCAR-5
RPMI-8226 = test system: RPMI-8226
SK-MEL-5 = test system: SK-MEL-5
SK-OV-3 = test system: SK-OV-3
SN12C = test system: SN12C
SW-620 = test system: SW-620
TK-10 = test system: TK-10

SMILES | GI50 (786-0) | GI50 (BT-549) | GI50 (CAKI-1) | GI50 (CCRF-CEM) | GI50 (COLO 205) | GI50 (DU-145) | GI50 (EKVX) | GI50 (HL-60) | GI50 (HOP-92) | GI50 (KM12) | GI50 (MCF7) | GI50 (MDA-N) | GI50 (NCI-H522) | GI50 (OVCAR-5) | GI50 (RPMI-8226) | GI50 (SK-MEL-5) | GI50 (SK-OV-3) | GI50 (SN12C) | GI50 (SW-620) | GI50 (TK-10)
COc1cc(C2SCC(=O)N2c2cc(Cl)c(Cl)cc2Cl)cc(OC)c1OC (stereo not given) | 38.2 µM (inactive) | 25.4 µM (inactive) | 28.7 µM (inactive) | 25.4 µM (inactive) | 39.5 µM (inactive) | 41.3 µM (inactive) | 37.3 µM (inactive) | 28.2 µM (inactive) | 28.6 µM (inactive) | 31.3 µM (inactive) | 37.7 µM (inactive) | 25.3 µM (inactive) | 46 µM (inactive) | > 100 µM (inactive) | 32.4 µM (inactive) | 25.6 µM (inactive) | 40.7 µM (inactive) | 36.5 µM (inactive) | 82 µM (inactive) | > 100 µM (inactive)
O=C1CSC(c2ccc(Cl)cc2)N1c1ccc(Oc2ccc(Cl)cc2)c(Cl)c1 (stereo not given) | 16.8 µM (inactive) | 15 µM (inactive) | 13.3 µM (inactive) | 5.46 µM (inactive) | 18.2 µM (inactive) | 13.1 µM (inactive) | 13.7 µM (inactive) | 11 µM (inactive) | 15.7 µM (inactive) | 15.7 µM (inactive) | 21.9 µM (inactive) | 14.5 µM (inactive) | 7.13 µM (inactive) | 14.2 µM (inactive) | 8.95 µM (inactive) | 17.1 µM (inactive) | 17.6 µM (inactive) | 20 µM (inactive) | 18.3 µM (inactive) | 18.7 µM (inactive)
CCOC(NC(=O)CC)(C(F)(F)F)C(F)(F)F | > 100 µM (inactive) | > 100 µM (inactive) | > 100 µM (inactive) | > 100 µM (inactive) | > 100 µM (inactive) | > 100 µM (inactive) | > 100 µM (inactive) | > 100 µM (inactive) | > 100 µM (inactive) | > 100 µM (inactive) | > 100 µM (inactive) | > 100 µM (inactive) | > 100 µM (inactive) | > 100 µM (inactive) | > 100 µM (inactive) | > 100 µM (inactive) | > 100 µM (inactive) | > 100 µM (inactive) | > 100 µM (inactive) | > 100 µM (inactive)
OCc1cc2c(ccc3sc4ccc5sc6ccc7ncccc7c6c5c4c32)s1 | 3.55 µM (inactive) | 14.3 µM (inactive) | 10.6 µM (inactive) | 19.7 µM (inactive) | 2.72 µM (inactive) | 17.1 µM (inactive) | 12.4 µM (inactive) | 10.1 µM (inactive) | 29.6 µM (inactive) | 6.47 µM (inactive) | 17.8 µM (inactive) | 10.3 µM (inactive) | 11 µM (inactive) | 15.3 µM (inactive) | 13.6 µM (inactive) | 4.08 µM (inactive) | 18.4 µM (inactive) | 11 µM (inactive) | 28.2 µM (inactive) | 31.8 µM (inactive)
CC(=O)Nc1ccc2[nH]c(C(=O)N3CC(CCl)c4c3cc([N+](=O)[O-])c3ccccc43)cc2c1 (stereo not given) | 10.7 µM (inactive) | 3.87 µM (inactive) | 3.93 µM (inactive) | 0.879 µM (active) | 4.98 µM (inactive) | 2.96 µM (inactive) | 5.09 µM (inactive) | 1.01 µM (active) | 2.5 µM (inactive) | 1.73 µM (inactive) | 5.25 µM (inactive) | > 57.4 µM (inactive) | 1.14 µM (inactive) | 13.1 µM (inactive) | 1.02 µM (active) | 5.89 µM (inactive) | 0.791 µM (active) | 7.8 µM (inactive) | 9.23 µM (inactive) | 6.32 µM (inactive)
NC(=O)C1CCCN1C(=O)C(Cc1c[nH]cn1)NC(=O)C1CCCC1 (stereo not given) | > 100 µM (inactive) | > 100 µM (inactive) | > 100 µM (inactive) | > 100 µM (inactive) | > 100 µM (inactive) | > 100 µM (inactive) | > 100 µM (inactive) | > 100 µM (inactive) | > 100 µM (inactive) | > 100 µM (inactive) | > 100 µM (inactive) | > 100 µM (inactive) | > 100 µM (inactive) | > 100 µM (inactive) | > 100 µM (inactive) | > 100 µM (inactive) | > 100 µM (inactive) | > 100 µM (inactive) | > 100 µM (inactive) | > 100 µM (inactive)
CCOC(=O)c1c(N/C(S)=N/c2ccccc2)sc2c1CCOC2 | > 100 µM (inactive) | 2.08 µM (inactive) | 43.3 µM (inactive) | 63.7 µM (inactive) | > 100 µM (inactive) | 80.5 µM (inactive) | 79.6 µM (inactive) | 24 µM (inactive) | 24.9 µM (inactive) | 69.5 µM (inactive) | 33 µM (inactive) | 50.1 µM (inactive) | 64.9 µM (inactive) | 38.4 µM (inactive) | 55.5 µM (inactive) | 53.1 µM (inactive) | 85.9 µM (inactive) | 48.8 µM (inactive) | > 100 µM (inactive) | 62.8 µM (inactive)
O=P1(c2ccccc2)C2=CCC=CC2C(c2ccccc2)N1Cc1ccccc1 (stereo not given) | 15.5 µM (inactive) | 17.4 µM (inactive) | 13.7 µM (inactive) | 15.5 µM (inactive) | 15.5 µM (inactive) | 17.5 µM (inactive) | 14 µM (inactive) | 20.4 µM (inactive) | 12.4 µM (inactive) | 12.9 µM (inactive) | 11.2 µM (inactive) | 20.9 µM (inactive) | 11.4 µM (inactive) | > 100 µM (inactive) | 13.3 µM (inactive) | 15.2 µM (inactive) | 17.1 µM (inactive) | 15.6 µM (inactive) | 21 µM (inactive) | 20 µM (inactive)
CN(CCC#N)c1ccc(/C=C2\SC(=S)NC2=O)cc1 | 34.8 µM (inactive) | 21.7 µM (inactive) | > 100 µM (inactive) | 6.75 µM (inactive) | 48.2 µM (inactive) | 73.6 µM (inactive) | > 100 µM (inactive) | 24.3 µM (inactive) | 22.6 µM (inactive) | 40.7 µM (inactive) | 46.6 µM (inactive) | 53.6 µM (inactive) | 71.1 µM (inactive) | > 100 µM (inactive) | 34 µM (inactive) | 52 µM (inactive) | 71.9 µM (inactive) | 80.4 µM (inactive) | 58.2 µM (inactive) | 49.7 µM (inactive)
COc1ccc2c(c1)CC[C@@H]1[C@@H]2CC[C@]2(C)[C@@H](O)/C(=C/c3ccncc3)C[C@@H]12 | 14.2 µM (inactive) | 15.7 µM (inactive) | 14.8 µM (inactive) | 11.1 µM (inactive) | 3.94 µM (inactive) | 18 µM (inactive) | 18.5 µM (inactive) | 7.98 µM (inactive) | 14 µM (inactive) | 9.71 µM (inactive) | 16.6 µM (inactive) | 12.4 µM (inactive) | 14 µM (inactive) | 12.5 µM (inactive) | 3.69 µM (inactive) | 9.75 µM (inactive) | 21.2 µM (inactive) | 22.8 µM (inactive) | 6.41 µM (inactive) | 18.9 µM (inactive)
Nc1ncnc2c1ncn2C1OC(C(=O)OCCO)C(O)C1O (stereo not given) | > 100 µM (inactive) | > 100 µM (inactive) | > 100 µM (inactive) | > 100 µM (inactive) | > 100 µM (inactive) | > 100 µM (inactive) | > 100 µM (inactive) | > 100 µM (inactive) | > 100 µM (inactive) | > 100 µM (inactive) | > 100 µM (inactive) | > 100 µM (inactive) | > 100 µM (inactive) | > 100 µM (inactive) | > 100 µM (inactive) | > 100 µM (inactive) | > 100 µM (inactive) | > 100 µM (inactive) | > 100 µM (inactive) | > 100 µM (inactive)
C=C1C[C@@H]2CC[C@@]34CC5O[C@H]6C(O[C@H]7CC[C@H](CC(=O)O[C@@H]8[C@@H](C)[C@@H]9O[C@@H]%10C[C@]%11(C[C@@H]%12O[C@]%13(C[C@H](C)[C@@H]%14O[C@@H]%15CC(C(O)CO)O[C@@H]%15C[C@@H]%14O%13)C[C@H](C)[C@@H]%12O%11)O[C@@H]%10C[C@@H]9O[C@H]8CC8O[C@@H](CC[C@@H]1O2)C[C@@H](C)C8(O)CO)O[C@@H]7[C@@H]6O3)[C@H]5O4 (stereo not given in full) | 0.804 µM (active) | 0.00891 µM (active) | > 1 µM (active) | > 1 µM (active) | > 0.65 µM (active) | > 0.916 µM (active) | > 1 µM (active) | > 1 µM (active) | > 0.615 µM (active) | > 0.726 µM (active) | 0.579 µM (active) | 0.288 µM (active) | 0.184 µM (active) | > 1 µM (active) | > 0.849 µM (active) | 0.624 µM (active) | > 1 µM (active) | > 1 µM (active) | > 0.736 µM (active) | > 0.45 µM (active)
CCCCCOC(=O)c1cc2cc(CCl)ccc2oc1=O | 3.02 µM (inactive) | 11.9 µM (inactive) | 1.75 µM (inactive) | 13.1 µM (inactive) | 2.36 µM (inactive) | 3.86 µM (inactive) | 3.37 µM (inactive) | 0.552 µM (active) | 2.62 µM (inactive) | 13.6 µM (inactive) | 10.4 µM (inactive) | 2.92 µM (inactive) | 0.213 µM (active) | 14.4 µM (inactive) | 18.9 µM (inactive) | 2.62 µM (inactive) | 16.9 µM (inactive) | 9.59 µM (inactive) | 12.1 µM (inactive) | 0.957 µM (active)

Reference: ChEMBL document CHEMBL1201862, “PubChem BioAssay data set” (2004)
